# Laboratory results: ChEMBL document CHEMBL5338765, “Discovery of Potent and Wild-Type-Sparing Fourth-Generation EGFR Inhibitors for Treatment of Osimertinib-Resistance NSCLC” (J Med Chem, 2023)
# What was measured:
# [1] = in vivo; settings: Sprague-Dawley, rat, iv, 1 mg/kg
# [2] = in vivo; settings: Sprague-Dawley, rat, iv, 1 mg/kg; remark: listed apart in the source
# [3] = in vivo; settings: Sprague-Dawley, rat, po, 10 mg/kg
# [4] = in vivo; settings: Sprague-Dawley, rat, po, 10 mg/kg; remark: listed apart in the source
# [5] = in vivo; settings: Sprague-Dawley, rat, po, 10 mg/kg; remark: listed apart in the source
# [6] = in vivo; settings: Sprague-Dawley, rat, iv, 1 mg/kg; remark: listed apart in the source
# [7] = in vivo; settings: Sprague-Dawley, rat, iv, 1 mg/kg; remark: listed apart in the source
# [8] = in vivo; settings: Sprague-Dawley, rat, po, 10 mg/kg; remark: listed apart in the source
# [9] = in vivo; settings: Sprague-Dawley, rat, iv, 1 mg/kg; remark: listed apart in the source
# [10] = in vivo; settings: Sprague-Dawley, rat, po, 10 mg/kg; remark: listed apart in the source
# [11] = in vivo; settings: Sprague-Dawley, rat, po, 10 mg/kg; remark: listed apart in the source
# [12] = in vivo; settings: Sprague-Dawley, rat, iv, 1 mg/kg; remark: listed apart in the source
# [13] = in vivo; settings: Sprague-Dawley, rat, po, 10 mg/kg; remark: listed apart in the source
smiles,measurement,setting,value
CCS(=O)(=O)n1cc(-c2nc(Nc3ccc4c(ccn4CCN(C)C)c3)ncc2C(F)(F)F)c2ccccc21,clearance at 24 h,[1],70.2 mL/min/kg
same,Tmax at 24 h,[2],4.8 min
same,Tmax at 24 h,[3],8 h
same,half-life at 24 h,[4],5.37 h
same,AUC(0-inf) at 24 h,[5],678 ng·h/mL
same,AUC(0-inf) at 24 h,[6],242 ng·h/mL
same,Cmax at 24 h,[7],130 ng/mL
same,Cmax at 24 h,[8],54.7 ng/mL
same,half-life at 24 h,[9],3.67 h
same,bioavailability at 24 h,[10],28.1%
same,CL/F at 24 h,[11],278 mL/min/kg
same,MRT inf at 24 h,[12],4.33 h
same,MRT inf at 24 h,[13],9.62 h
